For assay [1], the target named is T1, His tagged PTPN2 (TC45) protein (Homo sapiens, UniProt P17706).
T1 construct: His; made in house
T1 sequence (P17706 1-387 isoform P17706-2): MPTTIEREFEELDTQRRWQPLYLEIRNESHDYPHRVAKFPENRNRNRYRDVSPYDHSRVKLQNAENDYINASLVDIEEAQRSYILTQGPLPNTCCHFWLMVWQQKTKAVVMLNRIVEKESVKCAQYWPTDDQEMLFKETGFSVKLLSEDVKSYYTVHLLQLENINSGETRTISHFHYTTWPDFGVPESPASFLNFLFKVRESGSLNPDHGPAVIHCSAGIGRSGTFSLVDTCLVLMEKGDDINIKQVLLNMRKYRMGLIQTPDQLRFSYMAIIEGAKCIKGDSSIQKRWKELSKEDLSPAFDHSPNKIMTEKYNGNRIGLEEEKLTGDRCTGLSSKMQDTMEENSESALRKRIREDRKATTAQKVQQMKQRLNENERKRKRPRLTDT
The experiment in a line: Mobility Shift Assay (MSA) for PTPN2 inhibitors. The class given is biochemical. As to the method:
Example 43: Mobility Shift Assay (MSA) Used to Determine Potency of PTPN2 Inhibitors
Compound activity was determined using in house His tagged PTPN2 (TC45) protein (SEQ ID NO: 1) in an in vitro enzymatic reaction. The enzymatic assay used to determine activity was a mobility shift assay using a LabChip EZ Reader by Caliper Life Sciences. The enzymatic reaction was carried out in assay buffer (50 mM HEPES pH 7.5, 1 mM EGTA, 10 mM EDTA, 0.01% Tween® 20, and 2 mM DTT). The compounds were dispensed on a white 384 well ProxiPlate™ (PerkinElmer Catalog #6008289) plate using the Labcyte Echo at varying concentrations (12 point, 1:3 dilution). The enzyme (at 0.5 nM) was incubated with compound for 10 minutes at room temperature. Thereafter, the substrate (phosphorylated insulin receptor probe sequence: ((OG488)-(NH—CH2—CH2—O—CH2—CH2—O—CH2—CO)-T-R-D-I—(PY)-E-T-D-Y—Y—R—K—K—NH2) (SEQ ID NO: 2) was added at 2 μM to the plates and incubated for another 10 minutes at room temperature. Finally, a quench solution (water and 4-bromo-3-(2-oxo-2-propoxyethoxy)-5-(3-{[1-(phenylmethanesulfonyl)piperidin-4-yl]amino}phenyl)thiophene-2-carboxylic acid) was added to the plates, which were then run on the EZ Reader (excitation 488 nm, emission 530 nm) to measure % conversion (the amount of phosphorylated substrate which was de-phosphorylated by PTPN2). […] The % inhibition was then used to calculate the IC50 values.

Assay [2] concerns IFNγ-induced STAT1 phosphorylation (pSTAT1) in B16F10 cells. The experiment in a line: B16F10 Phospho-STAT1 HTRF proximal pharmacodynamic (PD) assay. To be noted: for EC50: B16-F10. Format: cell-based, murine. The method, then:
Example 45: B16F10 (Murine Melanoma Cells) Phospho-STAT1 HTRF Proximal Pharmacodynamic (PD) Assay
B16F10 cells were grown and maintained in high glucose DMEM (Gibco, Catalog #11965-092, Dun Laoghaire Co Dublin) supplemented with 10% fetal bovine serum (Gibco, Catalog #10082-139, Dun Laoghaire Co Dublin). The cells were pelleted and resuspended in high glucose DMEM without phenol red (Gibco, Catalog #11054-020, Dun Laoghaire Co Dublin), supplemented with 10% fetal bovine serum and plated in a 384 well Corning plate (product #3765, Corning, NY) at 11,000 cells per well in a volume of 20 μL. The cells were dosed with the compounds of interest using an Echo Liquid Handler (Beckman Coulter, Brea, CA) at 50 μM top dose with 3-fold dilutions down to 0.002679 μM for a 10-point dose response. The plate was incubated for 3 hours at 37° C. and subsequently treated with recombinant mouse IFNγ (R&D Systems, Catalog #485-MI, Minneapolis, MN; 100 nM final concentration) for 10 minutes at 37° C. to induce STAT1 phosphorylation followed by 3.3 μM staurosporine treatment for 1 hour at 37° C. to terminate phosphorylation. Media was then aspirated and 20 μL of 1× lysis buffer/blocking reagent (Cisbio Phospho-STAT1 kit, part #63ADK026PEH, Bedford, MA) was added. The plate was placed on a plate shaker for 30 minutes at room temperature, sealed, and stored at −80° C. until needed. To thaw, the plate was placed on shaker at room temperature until completely thawed while the antibody master mix was made (1:40 Phospho-STAT1 Eu Cryptate antibody, 1:40 Phospho-STAT1 d2 antibody, with the detection buffer; Cisbio Phospho-STAT1 kit, part #63ADK026PEH, Bedford, MA). The antibody master mix was then dispensed at 4 μL per well into a 384 ProxiPlate Plus (PerkinElmer, part #6008289, Waltham, MA) and 16 μL of lysate was added from the Corning plate to the Proxiplate using a VIAFLO 384 (INTEGRA). The plate was incubated for 3 hours at room temperature and read on an EnVision® (Perkin Elmer) plate reader with laser excitation at 335 nm and emission at 665 nm. Dotmatics Studies (Bishop's Stortford, UK) was utilized to generate all dose-response curves and calculate EC50s and are shown in Table 2.
In general terms: In TR-FRET formats the signal depends on donor and acceptor labels being close together.

For assay [3], the target named is T2, His tagged full-length PTPN1 protein (Homo sapiens, UniProt P18031).
T2 construct: His; made in house
T2 sequence (P18031 1-435): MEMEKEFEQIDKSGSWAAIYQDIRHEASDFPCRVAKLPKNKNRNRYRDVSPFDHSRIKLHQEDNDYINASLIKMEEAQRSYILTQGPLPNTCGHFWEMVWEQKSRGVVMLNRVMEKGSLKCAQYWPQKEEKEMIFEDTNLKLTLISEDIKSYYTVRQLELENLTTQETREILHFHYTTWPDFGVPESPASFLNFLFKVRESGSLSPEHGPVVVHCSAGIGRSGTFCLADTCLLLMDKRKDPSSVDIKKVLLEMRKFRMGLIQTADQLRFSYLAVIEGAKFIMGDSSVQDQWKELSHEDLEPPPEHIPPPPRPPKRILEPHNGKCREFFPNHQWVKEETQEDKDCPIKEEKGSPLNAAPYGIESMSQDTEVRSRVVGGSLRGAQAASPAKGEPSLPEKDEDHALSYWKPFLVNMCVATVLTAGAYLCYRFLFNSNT
Kind of assay: Mobility Shift Assay (MSA) for PTPN1 inhibitors. Format: biochemical. Particulars: enzyme 0.5 nM, substrate 2 μM, 10 minutes preincubation at room temperature. The method, then: Example 44: Mobility Shift Assay (MSA) Used to Determine Potency of PTPN1 Inhibitors
Compound activity was determined using in house His tagged full-length PTPN1 protein (SEQ ID NO: 3) in an in vitro enzymatic reaction. The enzymatic assay used to determine activity is a mobility shift assay using a LabChip EZ Reader by Caliper Life Sciences. The enzymatic reaction was carried out in assay buffer (50 mM HEPES pH 7.5, 1 mM EGTA, 10 mM EDTA, 0.010% Tween® 20, and 2 mM DTT). The compounds were dispensed on a white 384 well ProxiPlate™ (PerkinElmer Cat #6008289) plate using a Labcyte Echo® liquid handler at varying concentrations (12 point, 1:3 dilution). The enzyme (at 0.5 nM) was incubated with compound for 10 minutes at room temperature. Thereafter, the substrate (phosphorylated insulin receptor probe sequence: ((OG488)-(NH—CH2—CH2—O—CH2—CH2—O—CH2—CO)-T-R-D-I—(PY)-E-T-D-Y—Y—R—K—K—NH2) (SEQ ID NO: 2) was added at 2 μM to the plates and incubated for another 10 minutes at room temperature. Finally, a quench solution (water and 4-bromo-3-(2-oxo-2-propoxyethoxy)-5-(3-{[1-(phenylmethanesulfonyl)piperidin-4-yl]amino}phenyl)thiophene-2-carboxylic acid) was added to the plates, which were then run on the EZ Reader (excitation 488 nm, emission 530 nm) to measure % conversion (the amount of phosphorylated substrate which was de-phosphorylated by PTPN1). […] The % inhibition was then used to calculate the IC50 values.

[4] abbreviates: enzyme 0.5 nM, substrate 2 μM, 10 minutes preincubation at room temperature.
[5] abbreviates: Table 2, 3 hours compound, then mouse IFNγ 100 nM 10 minutes, top dose 50 μM, read-out: B16F10 IFNγ Induced pSTAT1 EC50.

Where two headings read alike, the source gives them in different places. Some results are limits rather than exact numbers.

Broadly, the IC50 is the midpoint of a concentration-inhibition curve. Usually EC50 stands for the concentration needed to bring the measured effect to its halfway point.

Regarding `CCC(CC)CCN[C@@H]1CSc2cc(O)c(N3CC(=O)NS3(=O)=O)c(F)c2C1` [Compound 119, 5-{(3S)-3-[(3-ethylpentyl)amino]-5-fluoro-7-hydroxy-3,4-dihydro-2H-1-benzothiopyran-6-yl}-1λ^6,2,5-thiadiazolidine-1,1,3-trione], the concentration for half-maximal inhibition (IC50) in assay [1] (setting [4]) was below 10 nM; in assay [3], 10 to 100 nM. Also, the concentration for a half-maximal effect (EC50) in assay [2] (setting [5]) worked out at 6660 nM.
On the same counts, the results for `CCCN[C@@H]1CSc2cc(O)c(N3CC(=O)NS3(=O)=O)c(F)c2C1` [Compound 107, 5-[(3S)-5-fluoro-7-hydroxy-3-(propylamino)-3,4-dihydro-2H-1-benzothiopyran-6-yl]-1λ^6,2,5-thiadiazolidine-1,1,3-trione] are 10 to 100 nM, 10 to 100 nM and 3960 nM.
For `CCCCN[C@@H]1CSc2cc(O)c(N3CC(=O)NS3(=O)=O)c(F)c2C1` [Compound 112, 5-[(3S)-3-(butylamino)-5-fluoro-7-hydroxy-3,4-dihydro-2H-1-benzothiopyran-6-yl]-1λ^6,2,5-thiadiazolidine-1,1,3-trione], the half-inhibitory concentration (IC50) was below 10 nM in assay [1] (setting [4]) and 10 to 100 nM in assay [3]. For the same compound, in assay [2] (setting [5]), the EC50 was found to be 1210 nM.
On the same counts, the results for `CC1(CN[C@@H]2CSc3cc(O)c(N4CC(=O)NS4(=O)=O)c(F)c3C2)COC1` [Compound 127, 5-[(3S)-5-fluoro-7-hydroxy-3-{[(3-methyloxetan-3-yl)methyl]amino}-3,4-dihydro-2H-1-benzothiopyran-6-yl]-1λ^6,2,5-thiadiazolidine-1,1,3-trione] are 10 to 100 nM, 10 to 100 nM and 8970 nM.
With `O=C1CN(c2c(O)cc3c(c2F)C[C@H](NCCC2CC(F)(F)C2)CS3)S(=O)(=O)N1` [Compound 117, 5-[(3S)-3-{[2-(3,3-difluorocyclobutyl)ethyl]amino}-5-fluoro-7-hydroxy-3,4-dihydro-2H-1-benzothiopyran-6-yl]-1λ^6,2,5-thiadiazolidine-1,1,3-trione], the half-inhibitory concentration (IC50) in assay [1] (setting [4]) is below 10 nM; in assay [3], 10 to 100 nM. For the same compound, the concentration giving a half-maximal response (EC50) in assay [2] (setting [5]) worked out at 723 nM.
Take `CC(C)CN[C@@H]1CSc2cc(O)c(N3CC(=O)NS3(=O)=O)c(F)c2C1` [Compound 113, 5-{(3S)-5-fluoro-7-hydroxy-3-[(2-methylpropyl)amino]-3,4-dihydro-2H-1-benzothiopyran-6-yl}-1λ^6,2,5-thiadiazolidine-1,1,3-trione]: the IC50 in assay [1] (setting [4]) and in assay [3] was 10 to 100 nM each time. Also, the EC50 in assay [2] (setting [5]) was found to be 2030 nM.
`O=C1CN(c2c(O)cc3c(c2F)C[C@H](NCCCn2cccn2)CS3)S(=O)(=O)N1` [Compound 131, 5-[(3S)-5-fluoro-7-hydroxy-3-{[3-(1H-pyrazol-1-yl)propyl]amino}-3,4-dihydro-2H-1-benzothiopyran-6-yl]-1λ^6,2,5-thiadiazolidine-1,1,3-trione]: the 50% inhibitory concentration (IC50) is 10 to 100 nM in assay [1] (setting [4]) and above 100 nM in assay [3]. The EC50 in assay [2] (setting [5]) was above 50000 nM.
The like results for `CC(C)=CCN[C@@H]1CSc2cc(O)c(N3CC(=O)NS3(=O)=O)c(F)c2C1` [Compound 122, 5-{(3S)-5-fluoro-7-hydroxy-3-[(3-methylbut-2-en-1-yl)amino]-3,4-dihydro-2H-1-benzothiopyran-6-yl}-1λ^6,2,5-thiadiazolidine-1,1,3-trione] were, in that order, 10 to 100 nM, 10 to 100 nM and 6390 nM.
Turning to `CC(C)N[C@@H]1CSc2cc(O)c(N3CC(=O)NS3(=O)=O)c(F)c2C1` [Compound 116, 5-{(3S)-5-fluoro-7-hydroxy-3-[(propan-2-yl)amino]-3,4-dihydro-2H-1-benzothiopyran-6-yl}-1λ^6,2,5-thiadiazolidine-1,1,3-trione], the IC50 in assay [1] (setting [4]) is 10 to 100 nM; in assay [3], above 100 nM. The EC50 in assay [2] (setting [5]) worked out at 17200 nM.
For the compound `CC(C)CCN[C@@H]1CSc2cc(O)c(N3CC(=O)NS3(=O)=O)c(F)c2C1` [Compound 103, 5-{(3S)-5-fluoro-7-hydroxy-3-[(3-methylbutyl)amino]-3,4-dihydro-2H-1-benzothiopyran-6-yl}-1λ^6,2,5-thiadiazolidine-1,1,3-trione], the “Thiochromane x-fold>potency biochemical” value in assay [1] (Table 3, PTPN2 MSA IC50 of chromane comparator over thiochromane) was 11.9. For the same compound, the half-inhibitory concentration (IC50) in assay [1] (Table 3, thiochromanes (X = S) and chromane comparators (X = O)) was 1 nM; in assay [1] (setting [4]), below 10 nM; in assay [3], below 10 nM. In addition, the EC50 worked out at 528 nM in assay [2] (setting [5]); 528 nM in assay [2] (Mus musculus, Table 3, B16F10 cells, IFNγ-induced, thiochromanes (X = S) and chromane comparators (X = O), read-out: pSTAT1 EC50). Further, in assay [2] (Table 3, pSTAT1 EC50 of chromane comparator over thiochromane), the “Thiochromane x-fold>potency cellular” value was found to be 13.2.

The record behind these values is patent publication US20250042894A1, “PROTEIN TYROSINE PHOSPHATASE INHIBITORS AND METHODS OF USE THEREOF” (Calico Life Sciences LLC, priority 2021, published 2025).
